The molecules below were run on Human RSV-A (“Long” strain) (assay: RSV in vitro cytoprotection assay (CPE, ATPlite) in HEp-2 cells). Conditions: human respiratory syncytial virus, 96 h; HEp-2 cells, 4-day incubation, ATPlite readout; read-out: Human RSV-A (“Long” strain) EC50.
Format: cell-based
Procedure, shortened: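 HEp-2 cells (8,000/well) given 2-fold serial compound dilutions in duplicate, then infected with sucrose-stabilised RSV-A Long stock. After 4 days, cell viability read by ATPlite luminescence, with a parallel uninfected plate for cytotoxicity. EC50 binned A<0.01 μM, B 0.01-0.05 μM, C>0.05 μM.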

Compound	EC50 [nM]
Cc1cccc(F)c1NC(=O)c1cc2c(s1)-c1cc(F)c(F)cc1N(C(=O)c1ccc(NC(=O)c3cc(F)cnc3N3CC4(CCOCC4)C3)cc1)CC2 [Example 72]	10 to 50
N#Cc1cnc(N2CC3(CCOCC3)C2)c(C(=O)Nc2ccc(C(=O)N3CCc4cc(C(=O)Nc5c(Cl)cccc5Cl)sc4-c4ccc(F)cc43)cc2)c1 [Example 18]	10 to 50
Cc1ccc(C(=O)Nc2ccc(C(=O)N3CCc4cc(NC(=O)OC5CCCC5)sc4-c4ccccc43)cc2)c(N2CC3(CCOCC3)C2)n1 [Example 299]	10 to 50
Cc1cnc(N2CC3(CCOCC3)C2)c(C(=O)Nc2ccc(C(=O)N3CCc4cc(NC(=O)c5c(F)cccc5C(F)(F)F)sc4-c4ccccc43)cc2)c1 [Example 287]	10 to 50
O=C(Nc1c(F)cc(F)cc1Cl)c1cc2c(s1)-c1ccc(Cl)cc1N(C(=O)c1ccc(NC(=O)c3cccnc3N3CC4(CCOCC4)C3)cc1)CC2 [Example 84]	10 to 50
O=C(Nc1c(F)cccc1Cl)c1cc2c(o1)-c1ccc(F)cc1N(C(=O)c1ccc(NC(=O)c3cc4c(nc3N3CC5(CCOCC5)C3)CCCC4)cc1)CC2 [Example 238]	10 to 50
O=C(Nc1ccc(C(=O)N2CCc3cc(-c4nc5cc(F)c(F)cc5[nH]4)sc3-c3ccc(F)cc32)cc1)c1cccnc1N1CC2(CCOCC2)C1 [Example 41]	> 50
N#Cc1cnc(N2CC3(CCOCC3)C2)c(C(=O)Nc2ccc(C(=O)N3CCc4cc(C(=O)Nc5c(F)cc(F)cc5Cl)sc4-c4ccc(F)cc43)cc2)c1 [Example 17]	10 to 50
Cc1cnc(N2CC3(CCOCC3)C2)c(C(=O)Nc2ccc(C(=O)N3CCc4cc(C(=O)Nc5ncns5)sc4-c4ccc(F)cc43)cc2)c1 [Example 128]	10 to 50
Cc1cnc(N2CC3(CCOCC3)C2)c(C(=O)Nc2ccc(C(=O)N3CCc4cc(-c5c[nH]c6cccnc56)sc4-c4ccc(F)cc43)cc2)c1 [Example 180]	10 to 50
O=C(Nc1c(F)cccc1F)c1cc2c(s1)-c1c(ccc(F)c1F)N(C(=O)c1ccc(NC(=O)c3cccnc3N3CC4(CCOCC4)C3)cc1)CC2 [Example 69]	10 to 50
Cc1ccc(C(=O)Nc2ccc(C(=O)N3CCc4cc(NC(=O)c5c(F)cccc5Cl)sc4-c4ccccc43)cc2)c(N2CC3(CCOCC3)C2)n1 [Example 277]	10 to 50
Cc1cnc(N2CC3(CCOCC3)C2)c(C(=O)Nc2ccc(C(=O)N3CCc4cc(NS(=O)(=O)c5c(F)cccc5F)sc4-c4ccccc43)cc2)c1 [Example 288]	> 50
Cc1cnc(N2CC3(CCOCC3)C2)c(C(=O)Nc2ccc(C(=O)N3CCc4cc(C(=O)Nc5ccnnc5)sc4-c4ccc(F)cc43)cc2)c1 [Example 127]	10 to 50
O=C(Nc1c(F)cccc1F)c1cc2c(s1)-c1ccc(F)cc1N(C(=O)c1ccc(NC(=O)c3cc(C(F)F)cnc3N3CC4(CCOCC4)C3)cc1)CC2 [Example 146]	10 to 50
Cc1cnc(N2CC3(CCOCC3)C2)c(C(=O)Nc2ccc(C(=O)N3CCc4cc(C(=O)Nc5ncccc5C(F)(F)F)sc4-c4ccc(F)cc43)cc2)c1 [Example 119]	< 10
O=C(Nc1ccccc1)c1cc2c(o1)-c1ccccc1N(C(=O)c1ccc(NC(=O)c3cc4c(nc3N3CC5(CCOCC5)C3)CCC4)cc1)CC2 [Example 246]	< 10
Cc1cnc(N2CC3(CCOCC3)C2)c(C(=O)Nc2ccc(C(=O)N3CCc4cc(NS(=O)(=O)c5c(F)cccc5Cl)sc4-c4ccccc43)cc2)c1 [Example 291]	> 50

Further lines, results first:

EC50 [nM]	Compound
< 10	Cc1cnc(N2CC3(CCOCC3)C2)c(C(=O)Nc2ccc(C(=O)N3CCc4cc(-c5nc(C)c(C)[nH]5)sc4-c4ccc(F)cc43)cc2)c1 [Example 158]
< 10	O=C(Nc1c(F)cccc1F)c1cc2c(s1)-c1ccc(F)cc1N(C(=O)c1ccc(NC(=O)c3cccnc3N3CC4(CCOCC4)C3)cc1)CC2 [Example 19]
< 10	Cc1cnc(N2CC3(CCOCC3)C2)c(C(=O)Nc2ccc(C(=O)N3CCc4c(sc(C(=O)Nc5c(C)cccc5C#N)c4F)-c4ccccc43)cc2)c1 [Example 204]
< 10	Cc1cnc(N2CC3(CCOCC3)C2)c(C(=O)Nc2ccc(C(=O)N3CCc4c(sc(C(=O)Nc5ncccc5C)c4F)-c4ccccc43)cc2)c1 [Example 226]
< 10	Cc1cnc(N2CC3(CCOCC3)C2)c(C(=O)Nc2ccc(C(=O)N3CCc4c(sc(C(=O)Nc5c(F)cccc5C(F)(F)F)c4F)-c4ccccc43)cc2)c1 [Example 200]
< 10	Cc1cnc(N2CC3(CCOCC3)C2)c(C(=O)Nc2ccc(C(=O)N3CCc4cc(C(=O)Nc5c(Cl)cccc5Cl)oc4-c4ccc(F)cc43)cc2)c1 [Example 236]
< 10	Cc1cnc(N2CC3(CCOCC3)C2)c(C(=O)Nc2ccc(C(=O)N3CCc4c(sc(-c5nc6ccc(F)cc6[nH]5)c4F)-c4ccccc43)cc2)c1 [Example 207]
< 10	O=C(Nc1c(F)cc(F)cc1F)c1cc2c(s1)-c1ccc(F)cc1N(C(=O)c1ccc(NC(=O)c3cc4c(nc3N3CC5(CCOCC5)C3)CCC4)cc1)CC2 [Example 67]
< 10	O=C(Nc1ncccc1C(F)(F)F)c1cc2c(s1)-c1ccc(F)cc1N(C(=O)c1ccc(NC(=O)c3cc4c(nc3N3CC5(CCOCC5)C3)CCC4)cc1)CC2 [Example 139]
< 10	O=C(Nc1c(Cl)cccc1Cl)c1cc2c(o1)-c1ccc(F)cc1N(C(=O)c1ccc(NC(=O)c3cc4c(nc3N3CC5(CCOCC5)C3)CCCC4)cc1)CC2 [Example 242]
< 10	Cc1cnc(N2CC3(CCOCC3)C2)c(C(=O)Nc2ccc(C(=O)N3CCc4c(sc(C(=O)Nc5ccc(F)cc5)c4F)-c4ccccc43)cc2)c1 [Example 217]
< 10	Cc1cnc(N2CC3(CCOCC3)C2)c(C(=O)Nc2ccc(C(=O)N3CCc4cc(NC(=O)OCC(F)(F)F)sc4-c4ccccc43)cc2)c1 [Example 295]
< 10	Cc1ccc(C(=O)Nc2ccc(C(=O)N3CCc4cc(C(=O)Nc5c(F)cc(F)cc5F)oc4-c4ccccc43)cc2)c(N2CC3(CCOCC3)C2)n1 [Example 257]
< 10	Cc1cnc(N2CC3(CCOCC3)C2)c(C(=O)Nc2ccc(C(=O)N3CCc4cc(C(=O)Nc5c(F)cccc5F)oc4-c4ccc(F)cc43)cc2)c1 [Example 234]
< 10	Cc1cccc(C)c1NC(=O)c1cc2c(o1)-c1ccccc1N(C(=O)c1ccc(NC(=O)c3cc4c(nc3N3CC5(CCOCC5)C3)CCC4)cc1)CC2 [Example 252]
< 10	Cc1cnc(N2CC3(CCOCC3)C2)c(C(=O)Nc2ccc(C(=O)N3CCc4c(sc(NC(=O)c5c(F)cccc5Cl)c4F)-c4ccccc43)cc2)c1 [Example 305]
< 10	Cc1cc(C(=O)Nc2ccc(C(=O)N3CCc4c(sc(C(=O)Nc5c(F)cccc5F)c4F)-c4ccccc43)cc2)c(N2CC3(CCOCC3)C2)nc1C [Example 220]
< 10	Cc1cnc(N2CC3(CCOCC3)C2)c(C(=O)Nc2ccc(C(=O)N3CCc4cc(-c5c[nH]c6ncccc56)sc4-c4ccc(F)cc43)cc2)c1 [Example 173]
< 10	Cc1cnc(N2CC3(CCOCC3)C2)c(C(=O)Nc2ccc(C(=O)N3CCc4c(sc(C(=O)Nc5c(F)cccc5F)c4C)-c4ccccc43)cc2)c1 [Example 274]
< 10	Cc1cnc(N2CC3(CCOCC3)C2)c(C(=O)Nc2ccc(C(=O)N3CCc4c(sc(C(=O)Nc5ncncc5F)c4F)-c4ccccc43)cc2)c1 [Example 222]
< 10	Cc1cnc(N2CC3(CCOCC3)C2)c(C(=O)Nc2ccc(C(=O)N3CCc4cc(C(=O)NC5CC(C)(C)OC(C)(C)C5)sc4-c4ccc(F)cc43)cc2)c1 [Example 121]
